Earlier results, collected in US20260021104A1, “BRILAROXAZINE LIPOSOME COMPOSITION” (Reviva Pharmaceuticals, Inc., priority 2023, published 2026).

Assays:
D2-4 receptors = conditions: partial agonist
5-HT1A receptors = molecular target: T1, 5-HT1A receptors (Homo sapiens, UniProt P08908); conditions: partial agonist
T1 sequence (P08908 1-422): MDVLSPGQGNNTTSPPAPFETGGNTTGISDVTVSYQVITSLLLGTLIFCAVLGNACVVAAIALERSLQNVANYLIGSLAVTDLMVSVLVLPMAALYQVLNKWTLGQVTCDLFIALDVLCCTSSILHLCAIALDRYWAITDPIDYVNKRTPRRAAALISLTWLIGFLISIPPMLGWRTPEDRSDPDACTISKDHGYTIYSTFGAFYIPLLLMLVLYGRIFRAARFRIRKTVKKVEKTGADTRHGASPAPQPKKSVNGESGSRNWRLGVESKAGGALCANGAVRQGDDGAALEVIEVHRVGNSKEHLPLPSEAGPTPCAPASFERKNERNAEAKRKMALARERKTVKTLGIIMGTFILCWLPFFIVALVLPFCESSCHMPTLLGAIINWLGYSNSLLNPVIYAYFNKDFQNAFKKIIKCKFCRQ

5-HT2A = 5-HT2A (Homo sapiens, UniProt P28223); conditions: weak partial agonist or neutral antagonist
Chain of 5-HT2A (P28223 whole entry, species assumed): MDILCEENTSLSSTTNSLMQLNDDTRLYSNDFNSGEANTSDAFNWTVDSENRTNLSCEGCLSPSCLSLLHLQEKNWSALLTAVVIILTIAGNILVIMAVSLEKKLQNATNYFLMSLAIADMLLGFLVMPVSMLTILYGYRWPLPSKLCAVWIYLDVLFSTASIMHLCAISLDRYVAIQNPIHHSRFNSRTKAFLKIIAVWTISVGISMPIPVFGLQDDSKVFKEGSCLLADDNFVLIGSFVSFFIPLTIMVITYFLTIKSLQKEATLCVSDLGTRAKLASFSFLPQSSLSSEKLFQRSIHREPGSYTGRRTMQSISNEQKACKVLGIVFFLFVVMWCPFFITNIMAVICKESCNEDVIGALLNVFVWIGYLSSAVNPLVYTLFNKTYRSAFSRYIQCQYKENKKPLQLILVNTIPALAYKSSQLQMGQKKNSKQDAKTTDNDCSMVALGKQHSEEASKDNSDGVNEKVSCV

5-HT2B/7 = conditions: antagonist
[1] = molecular target: serotonin transporter (SERT) (Homo sapiens, UniProt P31645)
Chain of serotonin transporter (SERT) (P31645 whole entry, species assumed): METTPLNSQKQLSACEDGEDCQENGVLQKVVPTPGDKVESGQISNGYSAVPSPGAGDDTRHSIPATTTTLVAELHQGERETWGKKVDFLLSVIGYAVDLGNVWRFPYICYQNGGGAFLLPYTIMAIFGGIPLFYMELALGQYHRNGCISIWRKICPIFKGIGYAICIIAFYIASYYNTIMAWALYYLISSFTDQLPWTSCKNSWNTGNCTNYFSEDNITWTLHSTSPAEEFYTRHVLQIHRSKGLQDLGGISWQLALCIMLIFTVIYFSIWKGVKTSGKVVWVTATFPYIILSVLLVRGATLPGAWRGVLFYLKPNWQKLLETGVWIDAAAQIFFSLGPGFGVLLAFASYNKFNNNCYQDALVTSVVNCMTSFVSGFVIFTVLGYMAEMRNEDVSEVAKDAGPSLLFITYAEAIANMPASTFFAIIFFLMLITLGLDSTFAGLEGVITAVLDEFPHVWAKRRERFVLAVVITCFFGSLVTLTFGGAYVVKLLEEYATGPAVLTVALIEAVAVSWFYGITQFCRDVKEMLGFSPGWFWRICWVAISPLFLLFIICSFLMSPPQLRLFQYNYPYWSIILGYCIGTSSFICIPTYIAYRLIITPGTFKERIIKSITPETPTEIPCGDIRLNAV

binding affinity (D2-4 receptors): high binding affinity
binding affinity (5-HT1A receptors): high binding affinity
binding affinity (5-HT2A): high binding affinity
binding affinity (5-HT2B/7): high binding affinity
affinity [1]: moderate affinity
Compound: O=C1COc2ccc(OCCCCN3CCN(c4cccc(Cl)c4Cl)CC3)cc2N1 [Brilaroxazine]
